{"source": "patent US6552066B1", "about": "“Protein tyrosine kinase inhibitors for treating osteoarthritis” (priority 1995, dated 2003)", "origin": "cited, not measured here", "key": {"[1]": {"tested_on": "progression of osteoarthritis", "conditions": "animals; cited from earlier work"}, "bovine cartilage explant": {"tested_on": "bovine cartilage explant", "conditions": "cited from earlier work"}}, "data": [{"smiles": "NC1=N/C(=C2/CCNC(=O)c3[nH]ccc32)C(=O)N1", "note": "[Z-debromohymenialdisine]", "values": [{"measurement": "progression of osteoarthritis", "setting": "[1]", "result": "slows the progression of osteoarthritis"}, {"measurement": "inhibition of cartilage degradation in the bovine cartilage explant assay", "setting": "bovine cartilage explant", "result": "inhibit cartilage degradation"}]}]}
